Earlier results in US9290492B2, “Solid forms of antibiotics” (Laboratorios Senosiain S.A. de C.V., priority 2011, dated 2016).

bioavailability (in vivo) [%]	route of excretion (in vivo)	excreted as the unchanged drug (total) (of an oral or intravenous dose)	excreted as the unchanged drug in feces (of an oral or intravenous dose, feces) [%]	excreted as the unchanged drug in urine (of an oral or intravenous dose, urine) [%]	Compound
99	via urine	–	–	–	C[C@H]1COc2c(N3CCN(C)CC3)c(F)cc3c(=O)c(C(=O)O)cn1c23 [Levofloxacin]
–	via the liver	Approximately 45%	~25	~20	COc1c(N2C[C@@H]3CCCN[C@@H]3C2)c(F)cc2c(=O)c(C(=O)O)cn(C3CC3)c12 [moxifloxacin, Moxifloxacin]
